From patent US7772256B2, “2-heteroaryl substituted benzothiophenes and benzofuranes 709” (Astrazeneca AB, priority 2007, dated 2010)

Molecular target: T1, synthetic Aβ 1-40 (Homo sapiens, UniProt P05067)
T1 construct: synthetic Aβ 1-40
Assay: Competition binding assay ([3H]PIB as radioligand)
Settings: 2.7 nM [3H]PIB radioligand, phosphate buffer pH 7.5, 30 min room temperature
Description: Competition binding was performed in 384-well FB filter plates using synthetic Aβ 1-40 in 2.7 nM of [^3H]PIB (or another ^3H-labeled radioligand when so mentioned) in phosphate buffer at pH 7.5, by adding various concentrations of non-radioactive compounds originally dissolved in DMSO. The binding mixture was incubated for 30 min at room temperature, followed by vacuum filtration, and subsequentially by washing twice with 1% Triton-X100. Scintillation fluid was thereafter added to the collected Aβ 1-40 on the filter plate, and the activity of the bound remaining radioligand ([^3H]PIB or another ^3H-labeled radioligand) was measured using 1450 Microbeta from PerkinElmer. Specific binding was determined according to the competion binding assay described herein. The determined IC50's in the competion binding assays (using [^3H]PIB as radioligand) of compounds of the present invention are shown in Table 1.

T1 sequence (P05067 672-711 limits assumed): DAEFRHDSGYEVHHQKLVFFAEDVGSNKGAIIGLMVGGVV

IC50 | SMILES
18 nM | CNc1ccc(-c2cc3cc(O)ccc3o2)c(F)n1 [2-(2-Fluoro-6-methylamino-pyridin-3-yl)-benzofuran-5-ol]
46 nM | CNc1ccc(-c2cc3cc(O)ccc3o2)cn1 [2-(6-Methylamino-pyridin-3-yl)-benzofuran-5-ol]
2710 nM | Nc1ccc(-c2cc3cc(O)ccc3o2)nn1 [2-(6-Amino-pyridazin-3-yl)-benzofuran-5-ol]
43 nM | NC(=O)c1ccc(-c2cc3cc(O)ccc3o2)nc1 [6-(5-Hydroxy-benzofuran-2-yl)-nicotinamide]
32 nM | CNc1ncc(-c2cc3cc(O)ccc3o2)cc1F [2-(5-fluoro-6-methylamino-pyridin-3-yl)-benzofuran-5-ol]
44 nM | CNc1ccc(-c2cc3cc(O)ccc3o2)nc1F [2-(6-Fluoro-5-methylamino-pyridin-2-yl)-benzofuran-5-ol]
66 nM | CNc1ccc(-c2cc3cc(OC)ccc3o2)cn1 [[5-(5-Methoxy-benzofuran-2-yl)-pyridin-2-yl]-methylamine]
600 nM | NC(=O)c1ccc(-c2cc3cc(O)ccc3o2)cn1 [5-(5-Hydroxy-benzofuran-2-yl)-pyridine-2-carboxylic acid amide]

The next lines start with the compound.

SMILES | IC50
NC(=O)c1ccc(-c2cc3ccccc3s2)cn1 [5-(1-benzothien-2-yl)pyridine-2-carboxamide] | 30 nM
COc1ccc2oc(-c3ccc(N)nn3)cc2c1 [6-(5-Methoxy-benzofuran-2-yl)-pyridazin-3-ylamine] | 912 nM
COc1ccc2oc(-c3ccc(C(N)=O)cn3)cc2c1 [6-(5-Methoxy-benzofuran-2-yl)-nicotinamide] | 33 nM
NC(=O)c1ccc(-c2cc3ccccc3o2)cn1 [5-(1-Benzofuran-2-yl)pyridine-2-carboxamide] | 19 nM
COc1ccc2nc(-c3cc4ccccc4o3)cn2c1 [2-(1-benzofuran-2-yl)-6-methoxyimidazo[1,2-a]pyridine] | 361 nM
COc1ccc2oc(-c3ccc(C(N)=O)nc3)cc2c1 [5-(5-Methoxy-benzofuran-2-yl)-pyridine-2-carboxylic acid amide] | 61 nM
